Measured values from patent US20140163100A1, “Methods of Treating Multiple Sclerosis and Preserving and/or Increasing Myelin Content” (BIOGEN IDEC MA INC., priority 2011, published 2014).
Where a name gives a salt, the structure may show the parent alone. Read-outs that look alike come from different tables or passages of the source.

Tests used:
[1] = system: subjects with relapsing-remitting multiple sclerosis; experiment: First Phase 3 clinical trial: MRI lesion loads; assay type: in vivo, human; settings: 2 years
Procedure: Subjects from 76 sites out of 198 participating in the study described in Example 1 had MRI scans at baseline, 24 weeks, 1 year and 2 years. Number of new or newly enlarging T2 lesions and number of gadolinium-enhancing (Gd+) lesions at 2 years were secondary endpoints of the study. Analyses were conducted on the MRI intention-to-treat population.

[2] = system: subjects with relapsing-remitting multiple sclerosis; experiment: First Phase 3 clinical trial: quality of life (SF-36, VAS); assay type: in vivo, human; settings: for mean SF-36 PCS score: at 2 years (placebo 42.0); for SF-36 Mental Component Scale score: at 2 years (placebo 44.6); for mean VAS score (global impression of well-being): at 2 years (placebo 60.3)
Procedure: Subjects participating in the study described in Example 1 were provided an SF-36 questionnaire to measure the subjects' health status and health-related quality of life (“QoL”) at baseline, 6, 12, and 24 months, on eight multi-item, 100-point scales, with higher scores indicating higher QoL. These scores were used to calculate the Physical Component Summary (“PCS”) and Mental Component Summary (“MCS”) scores. In addition, the subjects' global impression of well-being was assessed at baseline and every 3 months using a 100-point, visual analogue scale (VAS) with higher score indicating improvement in well-being.

mouse MS model = experiment: Mouse MS model, neuroprotective effects; assay type: in vivo; settings: mouse MS model with features of advanced stages of chronic forms of MS
Description: Although many well characterized rodent and primate models for MS exist, only recently have the characteristic features of progressive MS been identified in select animal models.

[3] = First Phase 3 clinical trial: safety and tolerability (adverse events); assay type: in vivo, human
Procedure: Safety and tolerability were assessed by continuous adverse event (“AE”) monitoring and laboratory tests at all monthly visits. Additionally, physical examination, vital signs, and 12-lead ECG were evaluated. As an ethical consideration, subjects' reconsent was required following any protocol-defined disability progression or relapse.

[4] = human, in vivo
Procedure: A second randomized, double-blind, placebo-controlled, multicenter, phase 3 clinical trial was conducted to evaluate the efficacy and safety of dimethyl fumarate over 2 years in subjects with relapsing-remitting multiple sclerosis (“RR-MS”).
Subjects 18-55 years of age with RR-MS and an Expanded Disability Status Scale score of 0.0-5.0 (inclusive) and having one or more relapses in the prior 12 months or one or more Gd^+ lesions in the prior 6 weeks were eligible for enrolment. Subjects were randomly assigned to placebo, dimethyl fumarate 240 mg PO twice daily (BID), dimethyl fumarate three times daily (TID), glatiramer acetate 20 mg SC once daily (QD).

[5] = system: subjects with relapsing-remitting multiple sclerosis; experiment: First Phase 3 clinical trial: magnetization transfer ratio (MTR) substudy; assay type: in vivo, human
Description: The study described in Example 1 included a substudy to examine change in magnetization transfer ratio (“MTR”) with treatment. MTR imaging has been proposed for use as a biomarker of changes in the myelin content of brain white matter. The aim of the study was to determine change in brain and lesion MTR in RR-MS. MTR scans were obtained in a subset of subjects at baseline and 6, 12 and 24 months, using manufacturer-supplied MT pulse sequences. MTR substudies were implemented at 64 of 76 MRI sites (84%) and included a total of 540 subjects: 176 in the dimethyl fumarate 240 mg bid group, 184 in the dimethyl fumarate 240 mg tid group, and 180 in the placebo group.

[6] = system: subjects with relapsing-remitting multiple sclerosis; experiment: First Phase 3 clinical trial: relapse and disability efficacy; assay type: in vivo, human; settings: for reduction of ARR vs placebo / reduction of risk of confirmed, 12-week disability progression: 2 years; for annualized relapse rate (ARR): 2 years (placebo 0.36); for reduction of risk of confirmed, 12-week disability progression: EDSS; for reduction of proportion of subjects relapsing compared with placebo: at 2 years
Procedure: The primary endpoint of the study in Example 1 was the proportion of subjects relapsing at 2 years, with relapses confirmed by an independent neurology evaluation committee (“INEC”) to ensure consistent and accurate reporting across sites. Secondary clinical efficacy endpoints at 2 years were the annualized relapse rate (“ARR”) and disability progression using EDSS. Efficacy analyses were conducted on the intention-to-treat population.

In the case of `COC(=O)/C=C/C(=O)OC` [dimethyl fumarate], the “reduction of mean number of Gd+ lesions compared with placebo” value ([1]; 240 mg BID) is reported as 94%, the “reduction of mean number of new or newly enlarging T2 lesions compared with placebo” value ([1]; 240 mg BID) is reported as 85% and the “reduction of mean number of Gd+ lesions compared with placebo” value ([1]; TID) is reported as 72%. For the same compound, the “reduction of mean number of new or newly enlarging T2 lesions compared with placebo” value ([1]; TID) was 74%, the “mean SF-36 PCS score” value ([2]; 240 mg BID) was 43.4 and the “SF-36 Mental Component Scale score” value ([2]; 240 mg BID) was 45.5. The “mean VAS score (global impression of well-being)” value ([2]; 240 mg BID) was 64.3, the “mean SF-36 PCS score” value ([2]; TID) was 44.2 and the “SF-36 Mental Component Scale score” value ([2]; TID) was 46.1. The “mean VAS score (global impression of well-being)” value ([2]; TID) was 65.7, the neuroprotective effects (mouse MS model) was “reduction in demyelination and axonal damage” and the deaths ([3]; dimethyl fumarate TID arm, result of a motor vehicle accident) was “One death”. For the same compound, the “MS relapse reported as AE” value ([3]; human, in vivo) was 27%, the opportunistic infections ([3]; human, in vivo) was “no opportunistic infections were observed” and the “AEs reported by subjects” value ([3]; human, in vivo, 2 years) was 95%. The “Incidence of infections and infestations” value ([3]; human, in vivo, 2 years) was 64-68%, the “Incidence of severe infections and infestations” value ([3]; human, in vivo, 2 years) was 2-3% and the “Severe AEs reported” value ([3]; human, in vivo, 2 years) was 17%. The “subjects discontinuing treatment due to AEs (number)” value ([3]; human, in vivo, 2 years) was 68, the “subjects discontinuing treatment due to AEs (percent)” value ([3]; human, in vivo, 2 years) was 16% and the subjects reporting flushing ([3]; human, in vivo, 2 years) was 32%. The “subjects withdrew from the study” value ([3]; human, in vivo, 2 years) was “approximately 23%”, the “most frequently reported AEs associated with dimethyl fumarate” value [4] was “flushing, diarrhea, nausea, upper respiratory tract infection, abdominal pain, and proteinuria” and the “AEs reported by subjects” value ([4]; 2 years) was 92%. For the same compound, the “subjects discontinuing treatment due to AEs (number)” value ([4]; 2 years) was 41, the “subjects discontinuing treatment due to AEs (percent)” value ([4]; 2 years) was 12% and the “subjects withdrew from the study” value ([4]; 2 years) was 21%. The “increase from baseline in whole brain MTR” value ([5]; 240 mg bid (placebo −0.386%)) was 0.129%, the “increase from baseline in normal appearing brain tissue MTR” value ([5]; 240 mg bid (placebo −0.392%)) was 0.190% and the “increase from baseline in whole brain MTR” value ([5]; 240 mg tid (placebo −0.386%)) was 0.096%. The “increase from baseline in normal appearing brain tissue MTR” value ([5]; 240 mg tid (placebo −0.392%)) was 0.115%, the “reduction of ARR vs placebo” value ([6]; 240 mg BID) was 53% and the “annualized relapse rate (ARR)” value ([6]; 240 mg BID) was 0.17. The “reduction of risk of confirmed, 12-week disability progression” value ([6]; 240 mg BID) was 38%, the “Annualized relapse rate at 2 years, % Reduction vs. Placebo” value ([6]; 240 mg BID, <40 years) was 63% and the “Proportion of patients relapsed at 2 years, % Reduction vs. Placebo” value (“Proportion … % Reduction vs. Placebo” for short) ([6]; 240 mg BID, <40 years) was 59%. The “Time to confirmed disability progression at 2 years, % Reduction vs. Placebo” value (shortened to “Time … % Reduction vs. Placebo”) ([6]; 240 mg BID, <40 years) was 62%, the “reduction of proportion of subjects relapsing compared with placebo” value ([6]; 240 mg BID) was 49% and the “Annualized relapse rate at 2 years, % Reduction vs. Placebo” value ([6]; 240 mg BID, ≧40 years) was 34%. The “Proportion … % Reduction vs. Placebo” value ([6]; 240 mg BID, ≧40 years) was 26%, the “Time … % Reduction vs. Placebo” value ([6]; 240 mg BID, ≧40 years) was 8% and the “Annualized relapse rate at 2 years, % Reduction vs. Placebo” value ([6]; 240 mg TID, <40 years) was 59%. The “Proportion … % Reduction vs. Placebo” value ([6]; 240 mg TID, <40 years) was 56%, the “Time … % Reduction vs. Placebo” value ([6]; 240 mg TID, <40 years) was 38% and the “Annualized relapse rate at 2 years, % Reduction vs. Placebo” value ([6]; 240 mg TID, ≧40 years) was 29%. The “Proportion … % Reduction vs. Placebo” value ([6]; 240 mg TID, ≧40 years) was 37%, the “Time … % Reduction vs. Placebo” value ([6]; 240 mg TID, ≧40 years) was 32% and the “reduction of ARR vs placebo” value ([6]; TID) was 48%. The “annualized relapse rate (ARR)” value ([6]; TID) was 0.19, the “reduction of risk of confirmed, 12-week disability progression” value ([6]; TID) was “approximately 34%” and the “reduction of proportion of subjects relapsing compared with placebo” value ([6]; TID) was 50%. The “efficacy by age subgroup” value ([6]; subjects under 40 years vs 40 years or older, 240 mg BID and TID) was “more efficacious in subjects under 40 years of age”.
